Source: patent US9139581B2 (PORTOLA PHARMACEUTICALS, INC., priority 2008, dated 2015)

biological target: T1, full length active recombinant SYK enzyme (Homo sapiens, UniProt P43405); experiment: Inhibition of Syk tyrosine phosphorylation activity (LANCE TR-FRET); format: biochemical; conditions: Table 3; 1 nM SYK, 100 μM ATP; read-out: Syk IC50 code
T1 construct: full length active recombinant SYK enzyme (Millipore, Calif.); purchased Millipore
Method in brief: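 The reaction is quenched with buffer holding Eu-anti-phosphotyrosine and streptavidin-APC, and detection runs 1 hr at room temperature. TR-FRET is read and IC50s come from non-linear regression.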

Compound | IC50 [µM]
CN(C(=O)CO)c1ccc(Nc2nc(NC3CCC3)c3cc[nH]c3n2)cc1 [Example 74, N-(4-(4-(cyclobutylamino)-7H-pyrrolo[2,3-d]pyrimidin-2-ylamino)phenyl)-2-hydroxy-N-methylacetamide] | 0.01 to 0.1
CN1C(=O)CCc2cc(Nc3nc(NCc4ccccc4)c4c(-c5ccncc5)c[nH]c4n3)ccc21 [Example 114, 6-(4-(benzylamino)-5-(pyridin-4-yl)-7H-pyrrolo[2,3-d]pyrimidin-2-ylamino)-1-methyl-3,4-dihydroquinolin-2(1H)-one] | 0.1 to 1
CCCCOC(=O)CC1CCN(c2nc(Nc3ccc4c(c3)CCC(=O)N4)nc3[nH]ccc23)CC1 [Example 119, Butyl 2-(1-(2-(2-oxo-1,2,3,4-tetrahydroquinolin-6-ylamino)-7H-pyrrolo[2,3-d]pyrimidin-4-yl)piperidin-4-yl)acetate] | > 1
NCC1CCN(c2nc(Nc3ccc4c(c3)CCC(=O)N4)ncc2C2CC2)CC1 [Example 139, 6-(4-(4-(aminomethyl)piperidin-1-yl)-5-cyclopropylpyrimidin-2-ylamino)-3,4-dihydroquinolin-2(1H)-one] | 0.1 to 1
CN(C)CC1CCN(c2nc(Nc3ccc(C(N)=O)cc3)ncc2F)CC1 [Example 133, 4-(4-(4-((dimethylamino)methyl)piperidin-1-yl)-5-fluoropyrimidin-2-ylamino)benzamide] | > 1
CN(C(=O)CCO)c1ccc(Nc2nc(NC3CC3)c3cc[nH]c3n2)cc1 [Example 87, N-(4-(4-(cyclopropylamino)-7H-pyrrolo[2,3-d]pyrimidin-2-ylamino)phenyl)-3-hydroxy-N-methypropanamide] | 0.01 to 0.1
CNc1nc(Nc2ccc(N3CCN(C(C)=O)CC3)cc2)nc2[nH]cc(-c3ccncc3)c12 [Example 2, 1-(4-(4-(4-(methylamino)-5-(pyridin-4-yl)-7H-pyrrolo[2,3-d]pyrimidin-2-ylamino)phenyl)piperazin-1-yl)ethanone] | 0.1 to 1
CN1C(=O)CCc2cc(Nc3nc(Nc4ccc(F)cc4)c4c(-c5ccncc5)c[nH]c4n3)ccc21 [Example 112, 6-(4-(4-fluorophenylamino)-5-(pyridin-4-yl)-7H-pyrrolo[2,3-d]pyrimidin-2-ylamino)-1-methyl-3,4-dihydroquinolin-2(1H)-one] | 0.1 to 1
CC(=O)N1CCN(c2ccc(Nc3ncc(C(N)=O)c(N4CCC(CNC(N)=O)CC4)n3)cc2)CC1 [Example 130, 2-(4-(4-acetylpiperazin-1-yl)phenylamino)-4-(4-(ureidomethyl)piperidin-1-yl)pyrimidine-5-carboxamide] | > 1
CC(=O)N(C)c1ccc(Nc2nc(NCCCCCN)c3cc[nH]c3n2)cc1 [Example 65, N-(4-(4-(5-aminopentylamino)-7H-pyrrolo[2,3-d-]pyrimidin-2-ylamino)phenyl)-N-methylacetamide] | 0.1 to 1
NC(=O)c1cnc(-n2ncc3ccc(N)c(Cl)c32)nc1NC1CC1 [Example 7, 2-(6-amino-7-chloro-1H-indazol-1-yl)-4-(cyclopropylamino)pyrimidine-5-carboxamide] | 0.1 to 1
CN(C)CCNC(=O)CN1C(=O)CCc2cc(Nc3nc(NC4CCC4)c4cc[nH]c4n3)ccc21 [Example 71, 2-(6-(4-(cyclobutyamino)-7H-pyrrolo[2,3-d]pyrimidine-2-ylamino)-2-oxo-3,4-dihydroquinolin-1(2H)-yl)-N-(2-(dimethylamino)ethyl)acetamide] | 0.1 to 1
CN(C(=O)CCO)c1ccc(Nc2nc(NC3CCC3)c3cc[nH]c3n2)cc1 [Example 86, N-(4-(4-(cyclobutylamino)-7H-pyrrolo[2,3-d]pyrimidin-2-ylamino)phenyl)-3-hydroxy-N-methypropanamide] | 0.01 to 0.1
CC(=O)N1CCN(c2ccc(Nc3nc(NC4CCS(=O)(=O)C4)c4cc[nH]c4n3)cc2)CC1 (stereo not drawn) [Example 100A, 1-(4-(4-(4-(1,1-dioxy-tetrahydrothiophen-3-ylamino)-7H-pyrrolo[2,3-d]pyrimidin-2-ylamino)phenyl)piperazin-1-yl)ethanone] | > 1
N#Cc1c[nH]c2nc(Nc3ccc(S(N)(=O)=O)cc3)nc(NC3CC3)c12 [Example 106, 4-(5-cyano-4-(cyclopropylamino)-7H-pyrrolo[2,3-d]pyrimidin-2-ylamino)benzenesulfonamide] | 0.001 to 0.01
CC(=O)N(C)c1ccc(Nc2nc(NC3CC3)c3c(C#N)c[nH]c3n2)cc1 [Example 105, N-(4-(5-cyano-4-(cyclopropylamino)-7H-pyrrolo[2,3-d]pyrimidin-2-ylamino)phenyl)-N-methylacetamide] | 0.01 to 0.1

Compound | IC50 [µM]
O=S1(=O)CCC(Nc2nc(Nc3ccc(N4CCNCC4)cc3)nc3[nH]ccc23)C1 (stereo not drawn) [Example 100B, N2-(4-(piperazin-1-yl)phenyl)-N4-(1,1-dioxy-tetrahydrothiophen-3-yl)-7H-pyrrolo[2,3-d]pyrimidine-2,4-diamine] | > 1
N#Cc1c[nH]c2nc(Nc3ccc4c(c3)CCC(=O)N4)nc(NC3CC3)c12 [Example 103, 4-(cyclopropylamino)-2-(2-oxo-1,2,3,4-tetrahydroquinolin-6-ylamino)-7H-pyrrolo[2,3-d]pyrimidine-5-carbonitrile] | 0.001 to 0.01
NC(=O)NCC1CCN(c2nc(Nc3ccc4c(c3)CCC(=O)N4)ncc2F)CC1 [Example 37, 1-((1-(5-fluoro-2-(2-oxo-1,2,3,4-tetrahydroquinolin-6-ylamino)pyrimidin-4-yl)piperidin-4-yl)methyl)urea] | 0.1 to 1
CN1C(=O)CCc2cc(Nc3nc(N)c4c(-c5ccc(F)cc5)c[nH]c4n3)ccc21 [Example 113, 6-(4-Amino-5-(4-fluorophenyl)-7H-pyrrolo[2,3-d]pyrimidin-2-ylamino)-1-methyl-3,4-dihydroquinolin-2(1H)-one] | > 1
OCCNc1nc(Nc2ccc3cn[nH]c3c2)nc2[nH]ccc12 [Example 91, N^2-(1H-indazol-6-ylamino)-N^4-(2-hydroxyethyl)-7H-pyrrolo[2,3-d]pyrimidine-2,4-diamine] | 0.01 to 0.1
CC(=O)N1CCN(c2ccc(Nc3ncc(F)c(N4CCN(C(=O)CC#N)CC4)n3)cc2)CC1 [Example 137, 3-(4-(2-(4-(4-acetylpiperazin-1-yl)phenylamino)-5-fluoropyrimidin-4-yl)piperazin-1-yl)-3-oxopropanenitrile] | > 1
CC(=O)N(C)c1ccc(Nc2nc(Nc3cccc(CN)c3)c3cc[nH]c3n2)cc1 [Example 97, N-(4-(4-(3-(aminomethyl)phenylamino)-7H-pyrrolo[2,3-d]pyrimidin-2-ylamino)phenyl)-N-methylacetamide] | 0.1 to 1
OC1CCN(c2ccc(Nc3nc(NC4CCC4)c4cc[nH]c4n3)cc2)CC1 [Example 56, 1-(4-(4-(cyclobutylamino)-7H-pyrrolo[2,3-d]pyrimidin-2-ylamino)phenyl)piperidin-4-ol] | 0.01 to 0.1
CC(=O)N1CCN(c2ccc(Nc3nc(Nc4cccc(C(N)=O)c4)c4cc[nH]c4n3)cc2)CC1 [Example 95A, 3-(2-(4-(4-acetylpiperazin-1-yl)phenylamino)-7H-pyrrolo[2,3-d]pyrimidin-4-ylamino)benzamide] | 0.1 to 1
CNc1nc(Nc2ccc3cn[nH]c3c2)nc2[nH]cc(-c3ccncc3)c12 [Example 1, N2-(1H-indazol-6-yl)-N4-methyl-5-(pyridin-4-yl)-7H-pyrrolo[2,3-d]pyrimidine-2,4-diamine] | 0.01 to 0.1
N[C@H]1CC[C@@H](Nc2nc(Nc3ccc4c(c3)CCC(=O)N4)ncc2F)CC1 [Example 140, 6-(4-((1s,4s)-4-aminocyclohexylamino)-5-fluoropyrimidin-2-ylamino)-3,4-dihydroquinolin-2(1H)-one] | 0.1 to 1
C[C@H](CO)Nc1nc(Nc2ccc(N3CCNCC3)cc2)nc2[nH]ccc12 [Example 98B, (R)-2-(2-(4-(piperazin-1-yl)phenylamino)-7H-pyrrolo[2,3-d]pyrimidin-4-ylamino)propan-1-ol] | 0.1 to 1
CC(=O)N(C)c1ccc(Nc2nc(Nc3cccc(S(N)(=O)=O)c3)c3cc[nH]c3n2)cc1 [Example 68, N-(4-(4-(3-aminosulfonyl-phenylamino)-7H-pyrrolo[2,3-d]pyrimidin-2-ylamino)phenyl)-N-methylacetamide] | 0.1 to 1
CCOC(=O)CN1C(=O)CCc2cc(Nc3nc(NC4CCC4)c4cc[nH]c4n3)ccc21 [Example 69, Ethyl 2-(6-(4-(cyclobutyamino)-7H-pyrrolo-[2,3-d]pyrimidine-2-ylamino)-2-oxo-3,4-dihydroquinolin-1(2H)-yl)acetate] | 0.01 to 0.1
NC(=O)CNc1nc(Nc2ccc3cn[nH]c3c2)nc2[nH]ccc12 [Example 83, 2-(2-(1H-indazol-6-ylamino)-7H-pyrrolo[2,3-d]pyrimidin-4-ylamino)acetamide] | 0.1 to 1
CCCCOC(=O)CN(C)S(=O)(=O)c1ccc(Nc2nc(NC3CCC3)c3cc[nH]c3n2)cc1 [Example 53, butyl 2-(4-(4-(cyclobutylamino)-7H-pyrrolo[2,3-d]pyrimidin-2-ylamino)-N-methylphenylsulfonamido)acetate] | 0.1 to 1

same assay, conditions: Table 4; 1 nM SYK, 100 μM ATP; read-out: syk IC50

Compound | IC50 [µM]
NCC1CCCCN1c1nc(Nc2ccc3cn[nH]c3c2)ncc1F (stereo not drawn) [Example 36, N-(4-(2-(aminomethyl)piperidin-1-yl)-5-fluoropyrimidin-2-yl)-1H-indazol-6-amine] | > 1
c1cc2c(N3CCCC3)nc(Nc3ccc(N4CCNCC4)cc3)nc2[nH]1 [Example 21, N-(4-(piperazin-1-yl)phenyl)-4-(pyrrolidin-1-yl)-7H-pyrrolo[2,3-d]pyrimidin-2-amine] | 0.1 to 1
CC(=O)N1CCN(c2ccc(Nc3ncc(F)c(N4CCCCC4CN)n3)cc2)CC1 (stereo not drawn) [Example 34, 1-(4-(4-(4-(2-(aminomethyl)piperidin-1-yl)-5-fluoropyrimidin-2-ylamino)phenyl)piperazin-1-yl)ethanone] | > 1
NCC1CCN(c2nc(Nc3ccc(S(N)(=O)=O)cc3)ncc2F)CC1 [Example 32, 4-(4-(4-(aminomethyl)piperidin-1-yl)-5-fluoropyrimidin-2-ylamino)benzenesulfonamide] | 0.01 to 0.1
